Data published in paper PMC9993459, “A novel selective spleen tyrosine kinase inhibitor SKI-O-703 (cevidoplenib) ameliorates lupus nephritis and serum-induced arthritis in murine models” (Clinical and Experimental Immunology, 2022).
Entries after “also recorded” stand apart in the source; their conditions may differ.

What was measured:
BALB/c mice = test: K/BxN serum-transferred arthritis (KSTA) in BALB/c mice; format: in vivo, mouse
Procedure: Arthritogenic serum was collected from 8-to-15-week-old K/BxN mice. Eight-week-old male BALB/c mice were injected intraperitoneally (ip) with 100 μl of K/BxN serum to induce arthritis. The mice were treated orally twice daily with 42 or 84 mpk of SKI-O-703 from that day for 9 days. In some experiments, mice were injected ip every 2 days with 400 μg/mouse of the TNF blocker, etanercept (Amgen). Ankle thickness was measured, and arthritic index was determined daily, as described previously. On day 9 post-induction, spleens and draining (inguinal and axillary) lymph nodes (LNs) were removed post mortem and assayed by histopathological and immunologic methods.
Hind paws were removed from KSTA mice, fixed, and decalcified in 5.5% EDTA in phosphate-buffered formalin. The paws were embedded in paraffin, sectioned, and stained with hematoxylin and eosin (H&E). Arthritic changes in the ankle and foot were scored (0–4 scale) and expressed as a histopathologic index, as described previously. Safranine O-stained sections were scored (0–4 scale) and expressed as the score for cartilage erosion, as described.
Single-cell suspensions of spleen and LN cells were prepared as previously described. Joint tissues from hind paws of KSTA mice were dissected free of soft tissue and bones, digested with 100 μg/ml Liberase (Roche) for 45 min at 37 °C, and filtered through a 70-μm-pore cell strainer (SPL Life Sciences) to prepare single cell suspensions of synovial infiltrates. The single cell suspensions were stained with an appropriate combination of mAbs and analyzed by FACS. The mAbs used were: CD138-PE, B220-PerCP or -APC-cy7, FAS-PE, CD19-PerCP or -APC, CD21-FITC or -APC, CD43-APC, CD23-PE-cy7, CD8a-PE, CD25-APC-cy7, CXCR5-biotin, GL7-FITC, CD45.2-FITC, CD27-FITC, Ki-67-FITC, Gr-1-FITC, CD4-FITC or -APC-cy7, phospho-Syk-PE, CD11b-PE or -PerCP, PD-1-APC, CD44-APC-cy7, and F4/80-PerCP mAbs (all from BD Biosciences, eBioscience or Biolegend). Streptavidin-PerCP was purchased from BD Biosciences.

mouse primary T cells = test: Annexin V/7-AAD apoptosis assay in TCR-engaged primary T cells; format: cell-based; conditions: up to 5 μM
Procedure: Supplementary F igure 1. SKI -O-592 and - 703 s p a re TCR- mediated signaling in T cells
(A) The stru cture of SKI-O-703. (B-D) Human per ipheral T cells sorted fro m human peripheral blood mononuclear cells (B and D) and mouse primary T cells sorted from spleen (C ) wer e stimulated with 5 µ g/ml anti- CD3 and 2 µ g/ml anti- CD28 m Abs in the presence or absence of inhibitors as indicated. Af ter one hour (B) and 24 h ours (C and D) of culture, cells we re assaye d […]
by immunoblotting (B), FA C S ( C), and ELISA (D). […]
of Zap70 and its downstream target PLCγ1. It’s effect on the suppression of IL-2 production […]
Supplementary F igure 2. Gating strategy for FACS of spleen cells
Erythrocyte-d epleted mo use spleen cells w ere assayed by FACS. Whole live cells were gated as shown: plasma cells (C D19lo/- CD138hi), GC B cells (CD19+ CD138- GL-7h i FA S hi), follicular B cells (CD19+ CD43- CD23hi CD21-), marginal zone B cells (CD19+ C D43- CD21hi CD23lo ), and Tfh cells (CD4+ CXCR5+ PD-1hi).
Supplementary Figure 3. Differential susceptibility of short-lived and long-lived plasma […]
When spleen cells from NZB/W mice were assay ed by FACS as in Fig. 5, they were stained intracellularly with anti- Ki-67 mAb to distinguish Ki-67+ dividing cells from Ki-67- non-dividing cells among t h e CD138hi population. […]

Syk = Syk (Homo sapiens, UniProt P43405); test: Kinase assay (LANCE Ultra TR-FRET), Syk; format: biochemical
Procedure: (§1) Kinase assays were conducted in 384-well plates using LANCE ultra 66 time-resolved fluorescence resonance energy transfer (TR-FRET) methods, according to the manufacturer’s instructions (Perkin-Elmer). In brief, each kinase was pre-incubated with a serially diluted compound for 30 min, incubated with ULight poly-GT peptide substrate and ATP for up to 1 h. Thirty minutes after adding Eu-labeled anti-phosphopeptides Ab diluted in LANCE Detection Buffer, LANCE signals were measured with an EnVision multilabel reader (Perkin-Elmer).

AuroraB = AuroraB (Homo sapiens, UniProt Q96GD4); test: Kinase assay (LANCE Ultra TR-FRET), AuroraB; format: biochemical
Procedure: as §1

FGFR3 = FGFR3 (Homo sapiens, UniProt P22607); test: Kinase assay (LANCE Ultra TR-FRET), FGFR3; format: biochemical
Procedure: as §1

Sequence of FGFR3 (P22607 23-806, species assumed): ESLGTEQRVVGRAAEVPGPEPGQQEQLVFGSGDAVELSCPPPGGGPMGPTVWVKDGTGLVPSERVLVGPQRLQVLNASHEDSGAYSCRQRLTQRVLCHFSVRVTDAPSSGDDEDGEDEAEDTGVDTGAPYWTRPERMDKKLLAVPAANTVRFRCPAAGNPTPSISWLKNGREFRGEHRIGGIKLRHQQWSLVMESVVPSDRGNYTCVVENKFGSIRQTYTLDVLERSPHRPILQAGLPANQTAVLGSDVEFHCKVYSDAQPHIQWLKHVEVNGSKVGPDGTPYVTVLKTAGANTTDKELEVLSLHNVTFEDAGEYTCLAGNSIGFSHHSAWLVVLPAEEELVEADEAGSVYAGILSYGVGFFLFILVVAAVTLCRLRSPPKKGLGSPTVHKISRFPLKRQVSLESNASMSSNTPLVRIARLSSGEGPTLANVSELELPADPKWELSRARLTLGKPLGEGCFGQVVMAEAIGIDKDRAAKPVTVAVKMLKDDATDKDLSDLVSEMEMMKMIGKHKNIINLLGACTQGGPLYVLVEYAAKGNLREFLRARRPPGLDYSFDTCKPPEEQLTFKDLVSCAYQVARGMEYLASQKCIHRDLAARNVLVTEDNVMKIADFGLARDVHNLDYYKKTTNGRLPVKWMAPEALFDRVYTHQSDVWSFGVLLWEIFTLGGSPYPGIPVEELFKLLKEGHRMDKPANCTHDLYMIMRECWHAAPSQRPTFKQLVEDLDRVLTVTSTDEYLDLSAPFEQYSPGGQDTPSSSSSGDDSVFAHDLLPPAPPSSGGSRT
Sequence of AuroraB (Q96GD4 whole entry): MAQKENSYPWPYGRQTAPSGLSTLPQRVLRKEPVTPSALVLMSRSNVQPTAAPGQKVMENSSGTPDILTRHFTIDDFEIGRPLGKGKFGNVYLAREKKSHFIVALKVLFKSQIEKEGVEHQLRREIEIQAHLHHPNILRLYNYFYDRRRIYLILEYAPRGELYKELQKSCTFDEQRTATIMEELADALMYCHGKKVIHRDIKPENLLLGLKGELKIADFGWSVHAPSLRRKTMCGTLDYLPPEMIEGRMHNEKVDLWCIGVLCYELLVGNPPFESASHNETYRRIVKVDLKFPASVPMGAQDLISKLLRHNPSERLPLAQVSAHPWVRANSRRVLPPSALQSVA

Row | SMILES | Ankle thickness and arthritic index (BALB/c mice; 42 mpk (lower dose) oral twice daily for 9 days) | Progression of KSTA (ankle thickness, arthritic index, inflammatory cell infiltration) (BALB/c mice; 42 mpk SKI-O-703 combined with TNF blocker etanercept, synergistic) | Ankle thickness and arthritic index (BALB/c mice; 84 mpk oral twice daily for 9 days) | Numbers of whole immune cells (CD45+) infiltrated into synovial tissue (BALB/c mice; 84 mpk, mainly neutrophils and macrophages) | Histopathologic index and cartilage erosion score (BALB/c mice; high dose (84 mpk), day 9) | Joint-draining LN total cells, B cells and GC B cells (BALB/c mice; high dose, day 9, lymphadenopathy disappeared) | Progression of KSTA (BALB/c mice; suboptimal dose 42 mpk, alone) | Proportions of early and late apoptotic T cells (mouse primary T cells) | Ratio to Syk (Syk) (Syk; IC50 ratio to Syk) | IC50 against all other kinases tested relative to Syk (Syk; fold higher than against Syk) | IC50 (Syk; kinase activity, TR-FRET) | Potency as Syk kinase inhibitor relative to R406 (Syk; more potent than R406) | Ratio to Syk (AuroraB) (AuroraB; IC50 ratio to Syk) | IC50 (AuroraB; kinase activity, TR-FRET) | Ratio to Syk (FGFR3) (FGFR3; IC50 ratio to Syk) | IC50 (FGFR3; kinase activity, TR-FRET)
1 | CS(=O)(=O)O.CS(=O)(=O)O.Cc1nn(-c2ccnc(Nc3ccc4c(c3)c(C(=O)C3CC3)cn4C)n2)cc1CN1C[C@H](O)CO1 [SKI-O-703, (S)-cyclopropyl(5-((4-(4-((4-hydroxyisoxazolidin-2-yl)methyl)-3-methyl-1H-pyrazol-1-yl)pyrimidin-2-yl)amino)-1-methyl-1H-indol-3-yl)methanone dimesylate] | the reduction was less pronounced | significantly suppressed disease progression | dramatically reduced to the basal level | significantly reduced | significantly reduced | significantly reduced numbers | did not significantly inhibit progression of KSTA | did not promote apoptotic cell death; also recorded: failed to increase | – | – | – | – | – | – | – | –
2 | Cc1nn(-c2ccnc(Nc3ccc4c(c3)c(C(=O)C3CC3)cn4C)n2)cc1CN1C[C@H](O)CO1 [SKI-O-592] | – | – | – | – | – | – | – | – | 1.0 | 67- to 2753 fold | 0.0062 µM | approximately 9 fold | >1623 | > 10 µM | 919 | 5.66 µM
